We go through 1 compound from ChEMBL document CHEMBL4024761, “Protac-Induced Protein Degradation in Drug Discovery: Breaking the Rules or Just Making New Ones?” (J Med Chem, 2018).

Experiment [1] has as its target von Hippel-Lindau disease tumor suppressor/Receptor-interacting serine/threonine-protein kinase 2 (Homo sapiens, UniProt O43353+P40337). Put plainly: Proteolysis targeting chimera activity in human THP1 cells assessed as induction of VHL-mediated delivery of RIPK2 for protein degradation by proteasome by measuring drug level causing 50% cellular protein depletion incubated for 16 hrs by Western blotting method. Type of experiment: cell-based. For orientation: A western blot detects proteins with antibodies after separation by electrophoresis.

The target in experiment [2] is von Hippel-Lindau disease tumor suppressor (Homo sapiens, UniProt P40337). The experiment in a line: Binding affinity to VHL (unknown origin) assessed as reduction of HIF1alpha derived peptide binding to VHL complex by competitive binding fluorescence polarization assay. Background: Polarisation of emitted light reports the rotation of a fluorescent probe.
Chain of von Hippel-Lindau disease tumor suppressor (P40337 whole entry): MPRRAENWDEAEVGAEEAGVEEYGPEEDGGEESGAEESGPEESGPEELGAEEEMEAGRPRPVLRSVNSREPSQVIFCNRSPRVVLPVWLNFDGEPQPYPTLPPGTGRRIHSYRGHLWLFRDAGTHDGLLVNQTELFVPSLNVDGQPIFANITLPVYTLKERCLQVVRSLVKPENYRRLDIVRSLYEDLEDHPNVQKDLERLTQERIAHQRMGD

Chain of von Hippel-Lindau disease tumor suppressor/Receptor-interacting serine/threonine-protein kinase 2 (O43353 whole entry): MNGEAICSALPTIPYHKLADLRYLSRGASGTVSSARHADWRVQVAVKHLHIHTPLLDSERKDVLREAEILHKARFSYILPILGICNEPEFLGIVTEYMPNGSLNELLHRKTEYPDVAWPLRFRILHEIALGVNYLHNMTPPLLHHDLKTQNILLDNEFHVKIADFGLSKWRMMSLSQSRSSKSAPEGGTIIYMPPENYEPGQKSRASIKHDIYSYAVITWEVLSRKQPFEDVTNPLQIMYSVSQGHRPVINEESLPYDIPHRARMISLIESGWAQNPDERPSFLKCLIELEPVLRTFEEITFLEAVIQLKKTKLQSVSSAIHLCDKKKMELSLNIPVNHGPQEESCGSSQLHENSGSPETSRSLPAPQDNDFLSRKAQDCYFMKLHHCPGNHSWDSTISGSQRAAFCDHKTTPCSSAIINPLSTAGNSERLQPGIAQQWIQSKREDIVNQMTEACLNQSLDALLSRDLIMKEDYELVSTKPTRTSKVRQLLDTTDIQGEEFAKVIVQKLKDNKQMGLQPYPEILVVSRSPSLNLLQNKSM
Chain of von Hippel-Lindau disease tumor suppressor/Receptor-interacting serine/threonine-protein kinase 2 (P40337 whole entry): as the sequence (P40337 whole entry) above

On to `Cc1ncsc1-c1ccc(CNC(=O)[C@@H]2C[C@@H](O)CN2C(=O)[C@@H](NC(=O)COCCOCCOCCOCCOc2cc3nccc(Nc4ccc5scnc5c4)c3cc2S(=O)(=O)C(C)(C)C)C(C)(C)C)cc1`, for which, in experiment [1], the DC50 was 1 nM. In addition, the Kd in experiment [2] was found to be 500 nM.

Usually DC50 stands for the midpoint of the concentration-degradation curve. By Kd is commonly meant a measure of binding affinity in units of concentration.
